The values below come from paper PMC7181277, “Synthesis and Biological Evaluation of New Antitubulin Agents Containing 2-(3′,4′,5′-trimethoxyanilino)-3,6-disubstituted-4,5,6,7-tetrahydrothieno[2,3-c]pyridine Scaffold” (Molecules, 2020).

In data set [1] the test system is murine leukemia (L1210) cells. Description: In vitro antiproliferative assay, L1210 cells. It is filed as cell-based. Particulars: Mus musculus. From the text: In Table 1 we report the in vitro antiproliferative activity of 2-(3′,4′,5′-trimethoxyanilino)-4,5,6,7-tetrahydrothieno[2,3-c]pyridine derivatives 3a–3j and the related 4,5,6,7-tetrahydrobenzo[b]thiophenes 3k–3p against a panel of three cell lines, which were derived from different cancer types, including murine leukemia (L1210), human T-lymphoblastoid leukemia (CEM), and human cervix carcinoma (HeLa) cells.
(§1) Murine leukemia L1210, human T-lymphocyte leukemia CEM, human cervix carcinoma (HeLa), and human chronic myelogenous leukemia K562 cells (3–5 × 10^4 cells) and a serial (5-fold) dilution of the test compounds were added to a 96-well microtiter plate. The cells were incubated for 72 h at 37 °C in a humidified 5% CO2 atmosphere. At the end of the incubation period, the cells were counted in a Coulter Counter (Coulter Electronics Ltd., Harpenden Herts, United Kingdom). The IC50 (50% inhibitory concentration) was defined as the concentration of compound that inhibited cell proliferation by 50%. The IC50 values represent the average (± standard deviation) of three independent experiments. Human peripheral blood mononuclear cells (PBMC) were obtained from healthy donors by centrifugation with Ficoll-Paque Plus (GE Healthcare Bio-Sciences AB, Uppsala).

For another data set, the system named is Bovine brain tubulin. Description: Inhibition of tubulin polymerization (turbidimetric assembly). It is filed as biochemical. The note with it: tubulin at 10 μM, 20 min incubation; read-out: Tubulin assembly IC50 ± SD. On the procedure:
(§2) Bovine brain tubulin was purified as described previously. To evaluate the effect of the compounds on tubulin assembly in vitro [59], varying concentrations were preincubated with 10 μM tubulin in 0.8 M glutamate buffer at 30 °C and then cooled to 0 °C. After addition of GTP, the mixtures were transferred to 0 °C cuvettes in a recording spectrophotometer and warmed to 30 °C, and the assembly of tubulin was observed turbidimetrically. […] The ability of the test compounds to inhibit colchicine binding to tubulin was measured as described earlier, except that the reaction mixtures contained 1 μM tubulin, 5 μM of [^3H]colchicine, and test compounds 3a or 3b.

Data set [2] deals with tubulin (colchicine site). Put plainly: Inhibition of [3H]colchicine binding to tubulin. Particulars: tubulin 1 μM, colchicine 5 μM, compound 5 μM. Details: species or system Bovine. On the procedure: as §2
Data set [3] deals with human T-lymphoblastoid leukemia (CEM) cells. Put plainly: In vitro antiproliferative assay, CEM cells. Format: cell-based. Particulars: CCRF-CEM; human T-lymphocyte CEM, 72 h, cell count; mean ± SE. The method, then: as §1, with “The IC50 (50% inhibitory concentration) was defined as the concentration of compound that inhibited cell proliferation by 50%.” left out
For data set [4], the system named is human cervix carcinoma (HeLa) cells. Description: In vitro antiproliferative assay, HeLa cells. The note with it: human cervix carcinoma HeLa, 72 h, cell count; mean ± SE. Format: cell-based. On the procedure:
as §1, with “The IC50 (50% inhibitory concentration) was defined as the concentration of compound that inhibited cell proliferation by 50%.” left out

Where [5] appears, read: murine leukemia L1210, 72 h, cell count, mean ± SE.

One may read the IC50 as the concentration needed to halve the response being measured. As to `COc1ccc(/C=C\c2cc(OC)c(OC)c(OC)c2)cc1O` [CA-4, combretastatin A-4, reference compound], the concentration for half-maximal inhibition (IC50) in data set [1] (L1210, 72 h) amounted to 0.0028 ± 0.0011 µM; with Bovine brain tubulin it was […]. The “Colchicine binding % ± SD (inhibition of [3H]colchicine binding)” value in data set [2] came to 98 ± 0.9%.
As usually defined, the melting point is the temperature of the solid-liquid transition. Turning to `CCOC(=O)c1c(Nc2cc(OC)c(OC)c(OC)c2)sc2c1CCC(C)C2` (centres unmarked) [Compound 3o, Ethyl 6-methyl-2-((3,4,5-trimethoxyphenyl)amino)-4,5,6,7-tetrahydrobenzo[b]thiophene-3-carboxylate], the melting point was in the range of 90 to 92 °C. The molecule further returned a 50% inhibitory concentration (IC50) in data set [1] (setting [5]) of 86 ± 41 µM. The IC50 in data set [3] was determined as 78 ± 33 µM. In data set [4], this molecule had a half-maximal inhibitory concentration (IC50) of 66 ± 6 µM.
As for `CCOC(=O)c1c(Nc2cc(OC)c(OC)c(OC)c2)sc2c1CCN(C(=O)OCC)C2` [Compound 3g, Diethyl 2-((3,4,5-trimethoxyphenyl)amino)-4,5-dihydrothieno[2,3-c]pyridine-3,6(7H)-dicarboxylate], the melting point fell in the range of 67 to 69 °C. The molecule further showed a half-maximal inhibitory concentration (IC50) in data set [1] (setting [5]) of 19 µM. In data set [3], this molecule showed an IC50 of 19 ± 1 µM. In data set [4], this molecule showed an IC50 of 19 ± 4 µM.
Regarding `CCOC(=O)c1c(Nc2cc(OC)c(OC)c(OC)c2)sc2c1CCN(C(=O)OC)C2` [Compound 3f, 3-Ethyl 6-methyl 2-((3,4,5-trimethoxyphenyl)amino)-4,5-dihydrothieno[2,3-c]pyridine-3,6(7H)-dicarboxylate], the melting point was in the range of 128 to 130 °C. The molecule also gave an IC50 in data set [1] (setting [5]) of 22 ± 4 µM. Half-maximal inhibition in data set [3] (IC50) was put at 22 ± 8 µM. Also, in data set [4], the IC50 was 67 ± 20 µM.
Take `CCOC(=O)N1CCc2c(sc(NC(=O)c3cccs3)c2C#N)C1` [Compound 2b, reference compound]: the IC50 is 6 ± 0.3 µM in data set [1] (setting [5]), 3.7 ± 1.2 µM in data set [3] and 41 ± 27 µM in data set [4].
Regarding `COC(=O)c1c(Nc2cc(OC)c(OC)c(OC)c2)sc2c1CCN(C(=O)OC)C2` [Compound 3c, Dimethyl 2-((3,4,5-trimethoxyphenyl)amino)-4,5-dihydrothieno[2,3-c]pyridine-3,6(7H)-dicarboxylate], the melting point was in the range of 140 to 141 °C. Moreover, the IC50 in data set [1] (setting [5]) came out at 17 ± 5 µM. In data set [3], half-maximal inhibition (IC50) was put at 16 ± 4 µM. This molecule also came in with a 50% inhibitory concentration (IC50) in data set [4] of 23 ± 10 µM.
The matching figures for `CCOC(=O)N1CCc2c(sc(Nc3cc(OC)c(OC)c(OC)c3)c2C(=O)OC)C1` [Compound 3d, 6-Ethyl 3-methyl 2-((3,4,5-trimethoxyphenyl)amino)-4,5-dihydrothieno[2,3-c]pyridine-3,6(7H)-dicarboxylate]: 76 to 78 °C, 15 ± 2 µM, 12 ± 4 µM and 16 ± 3 µM.
In turn, `COc1cc(Nc2sc3c(c2C#N)CCC(c2ccccc2)C3)cc(OC)c1OC` (centres unmarked) [Compound 3l, 6. -Phenyl-2-((3,4,5-trimethoxyphenyl)amino)-4,5,6,7-tetrahydrobenzo[b]thiophene-3-carbonitrile] registered a melting point of 169 to 170 °C. Moreover, in data set [1] (setting [5]), the concentration for half-maximal inhibition (IC50) came to 92 ± 29 µM. The 50% inhibitory concentration (IC50) in data set [3] amounted to 58 ± 53 µM. In data set [4], this molecule yielded an IC50 of 124 ± 8 µM.
In turn, `COc1cc(Nc2sc3c(c2C#N)CCC(C)C3)cc(OC)c1OC` (centres unmarked) [Compound 3k, 6. -Methyl-2-((3,4,5-trimethoxyphenyl)amino)-4,5,6,7-tetrahydrobenzo[b]thiophene-3-carbonitrile] had a melting point of 112 to 114 °C. In data set [1] (setting [5]), this molecule returned an IC50 of more than 250 µM. Besides, the half-maximal inhibitory concentration (IC50) in data set [3] is more than 250 µM. In data set [4], this molecule registered a half-inhibitory concentration (IC50) of 202 ± 25 µM.
On to `COC(=O)c1c(Nc2cc(OC)c(OC)c(OC)c2)sc2c1CCC(c1ccccc1)C2` (centres unmarked) [Compound 3n, Methyl 6-phenyl-2-((3,4,5-trimethoxyphenyl)amino)-4,5,6,7-tetrahydrobenzo[b]thiophene-3-carboxylate], for which the melting point is 147 to 148 °C. This molecule also had an IC50 in data set [1] (setting [5]) of 101 ± 9 µM. In data set [3], the IC50 is 102 ± 50 µM. Besides, inhibition in data set [4] was half-maximal at 48 ± 6 µM (IC50).
With `CCOC(=O)c1c(Nc2cc(OC)c(OC)c(OC)c2)sc2c1CCN(C(C)=O)C2` [Compound 3h, Ethyl 6-acetyl-2-((3,4,5-trimethoxyphenyl)amino)-4,5,6,7-tetrahydrothieno[2,3-c]pyridine-3-carboxylate], the melting point lay within 93 to 95 °C. In addition, the IC50 in data set [1] (setting [5]) was found to be 25 ± 3 µM. In data set [3], this molecule registered an IC50 of 34 ± 9 µM. The half-inhibitory concentration (IC50) in data set [4] worked out at 24 ± 3 µM.
For `COC(=O)c1c(Nc2cc(OC)c(OC)c(OC)c2)sc2c1CCC(C)C2` (centres unmarked) [Compound 3m, Methyl 6-methyl-2-((3,4,5-trimethoxyphenyl)amino)-4,5,6,7-tetrahydrobenzo[b]thiophene-3-carboxylate], the melting point was 127 to 129 °C. In data set [1] (setting [5]), half-maximal inhibition (IC50) was put at 82 ± 13 µM. Moreover, the concentration for half-maximal inhibition (IC50) in data set [3] stood at 45 ± 17 µM. The same molecule yielded an IC50 in data set [4] of 11 ± 6 µM.
The like results for `CCOC(=O)N1CCc2c(sc(Nc3cc(OC)c(OC)c(OC)c3)c2C(=O)OC(C)(C)C)C1` [Compound 3j, 3-tert-butyl 6-ethyl 2-((3,4,5-trimethoxyphenyl)amino)-4,5-dihydrothieno[2,3-c]pyridine-3,6(7H)-dicarboxylate] were, in that order, 60 to 62 °C, 19 ± 3 µM, 19 ± 2 µM and 20 ± 4 µM.
In the case of `COC(=O)N1CCc2c(sc(Nc3cc(OC)c(OC)c(OC)c3)c2C(=O)OC(C)(C)C)C1` [Compound 3i, 3-tert-butyl 6-methyl 2-((3,4,5-trimethoxyphenyl)amino)-4,5-dihydrothieno[2,3-c]pyridine-3,6(7H)-dicarboxylate], the melting point was in the range of 50 to 52 °C. Further, in data set [1] (setting [5]), the IC50 amounted to 18 ± 3 µM. The same molecule yielded an IC50 in data set [3] of 20 ± 2 µM. Inhibition in data set [4] was half-maximal at 14 ± 1 µM (IC50).
`COC(=O)c1c(Nc2cc(OC)c(OC)c(OC)c2)sc2c1CCN(C(C)=O)C2` [Compound 3e, Methyl 6-acetyl-2-((3,4,5-trimethoxyphenyl)amino)-4,5,6,7-tetrahydrothieno[2,3-c]pyridine-3-carboxylate] yielded a melting point of 90 to 91 °C. For the same molecule, the half-maximal inhibitory concentration (IC50) in data set [1] (setting [5]) was 26 ± 2 µM. The same molecule had a 50% inhibitory concentration (IC50) in data set [3] of 43 ± 12 µM. Moreover, the IC50 in data set [4] is 48 ± 17 µM.
For the molecule `CCOC(=O)c1c(Nc2cc(OC)c(OC)c(OC)c2)sc2c1CCC(c1ccccc1)C2` (centres unmarked) [Compound 3p, Ethyl 6-phenyl-2-((3,4,5-trimethoxyphenyl)amino)-4,5,6,7-tetrahydrobenzo[b]thiophene-3-carboxylate], the melting point fell in the range of 98 to 100 °C. The concentration for half-maximal inhibition (IC50) in data set [1] (setting [5]) worked out at 112 ± 1 µM. The half-inhibitory concentration (IC50) in data set [3] is 88 ± 12 µM. The IC50 in data set [4] was 169 ± 18 µM.
